# Laboratory results as given in PubChem BioAssay (NCI).
#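 1) Cells in 96-well plates. 2) Compound, 48 h, 5 concentrations. 3) Linear interpolation between surrounding doses. 4) Unreached endpoint = highest concentration. GI50 marks 50% less growth. TGI: total growth inhibition.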
# Experiments:
# Experiment in all cases: NCI anticancer screen, dose series, 48 h
# [1] = tested on: 786-0 renal
# [2] = tested on: A498 renal
# [3] = tested on: A549 NSCLC
# [4] = tested on: ACHN renal
# [5] = tested on: BT-549 breast
# [6] = tested on: CAKI-1 renal
# [7] = tested on: CCRF-CEM leukemia
# [8] = tested on: COLO 205 colon
# [9] = tested on: DU-145 prostate
# [10] = tested on: EKVX NSCLC
# [11] = tested on: HCC-2998 colon
# [12] = tested on: HCT-116 colon
# [13] = tested on: HCT-15 colon
# [14] = tested on: HL-60(TB) leukemia
# [15] = tested on: HOP-62 NSCLC
# [16] = tested on: HOP-92 NSCLC
# [17] = tested on: HS 578T breast
# [18] = tested on: HT29 colon
# [19] = tested on: IGROV1 ovarian
# [20] = tested on: K-562 leukemia
# [21] = tested on: KM12 colon
# [22] = tested on: LOX IMVI melanoma
# [23] = tested on: M14 melanoma
# [24] = tested on: MALME-3M melanoma
# [25] = tested on: MCF7 breast
# [26] = tested on: MDA-MB-231 breast
# [27] = tested on: MDA-MB-435
# [28] = tested on: MOLT-4 leukemia
# [29] = tested on: NCI-H226 lung
# [30] = tested on: NCI-H23 lung
# [31] = tested on: NCI-H460 lung
# [32] = tested on: NCI-H522 lung
# [33] = tested on: NCI/ADR-RES ovarian
# [34] = tested on: OVCAR-4 ovarian
# [35] = tested on: OVCAR-5 ovarian
# [36] = tested on: OVCAR-8 ovarian
# [37] = tested on: PC-3 prostate
# [38] = tested on: RPMI-8226 leukemia
# [39] = tested on: RXF 393 renal
# [40] = tested on: SF-268 CNS
# [41] = tested on: SF-295 CNS
# [42] = tested on: SF-539 CNS
# [43] = tested on: SK-MEL-2 melanoma
# [44] = tested on: SK-MEL-28 melanoma
# [45] = tested on: SK-MEL-5 melanoma
# [46] = tested on: SK-OV-3 ovarian
# [47] = tested on: SN12C renal
# [48] = tested on: SNB-19 CNS
# [49] = tested on: SNB-75 CNS
# [50] = tested on: SR leukemia
# [51] = tested on: SW-620 colon
# [52] = tested on: T-47D breast
# [53] = tested on: TK-10 renal
# [54] = tested on: U251 CNS
# [55] = tested on: UACC-257 melanoma
# [56] = tested on: UACC-62 melanoma
# [57] = tested on: UO-31 renal
structure (smiles),measurement,setting,value
COC(=O)C[Se]C(=O)Cc1c(C)n(C(=O)c2ccc(Cl)cc2)c2ccc(OC)cc12,GI50,[1],2.64 µM
same,TGI,[1],6.58 µM
same,GI50,[2],2.43 µM
same,TGI,[2],6.36 µM
same,GI50,[3],1.96 µM
same,TGI,[3],4.63 µM
same,GI50,[4],3.36 µM
same,TGI,[4],10.2 µM
same,GI50,[5],1.91 µM
same,TGI,[5],4.21 µM
same,GI50,[6],2.63 µM
same,TGI,[6],6.85 µM
same,GI50,[7],3.04 µM
same,TGI,[7],16.8 µM
same,GI50,[8],1.83 µM
same,TGI,[8],4.4 µM
same,GI50,[9],2.72 µM
same,TGI,[9],8.01 µM
same,GI50,[10],1.71 µM
same,TGI,[10],4.26 µM
same,GI50,[11],4.96 µM
same,TGI,[11],16.9 µM
same,GI50,[12],1.8 µM
same,TGI,[12],4.21 µM
same,GI50,[13],2.2 µM
same,TGI,[13],6.03 µM
same,GI50,[14],2.9 µM
same,TGI,[14],19.7 µM
same,GI50,[15],1.74 µM
same,TGI,[15],4.14 µM
same,GI50,[16],1.98 µM
same,TGI,[16],4.27 µM
same,GI50,[17],2.33 µM
same,TGI,[17],8.84 µM
same,GI50,[18],2.84 µM
same,TGI,[18],8.17 µM
same,GI50,[19],2.1 µM
same,TGI,[19],4.91 µM
same,GI50,[20],5.3 µM
same,TGI,[20],> 100 µM
same,GI50,[21],3.06 µM
same,TGI,[21],12.6 µM
same,GI50,[22],1.81 µM
same,TGI,[22],3.79 µM
same,GI50,[23],1.64 µM
same,TGI,[23],4.91 µM
same,GI50,[24],1.81 µM
same,TGI,[24],5.31 µM
same,GI50,[25],2.57 µM
same,TGI,[25],11.3 µM
same,GI50,[26],2.27 µM
same,TGI,[26],5.89 µM
same,GI50,[27],1.75 µM
same,TGI,[27],3.43 µM
same,GI50,[28],5.29 µM
same,TGI,[28],90.1 µM
same,GI50,[29],2.03 µM
same,TGI,[29],6.53 µM
same,GI50,[30],2.41 µM
same,TGI,[30],6.41 µM
same,GI50,[31],2.62 µM
same,TGI,[31],8.34 µM
same,GI50,[32],9.61 µM
same,TGI,[32],28.8 µM
same,GI50,[33],2.41 µM
same,TGI,[33],6.92 µM
same,GI50,[34],2.27 µM
same,TGI,[34],8.1 µM
same,GI50,[35],2.21 µM
same,TGI,[35],6 µM
same,GI50,[36],2.27 µM
same,TGI,[36],6.22 µM
same,GI50,[37],3.91 µM
same,TGI,[37],15.5 µM
same,GI50,[38],3.36 µM
same,TGI,[38],22.9 µM
same,GI50,[39],1.73 µM
same,TGI,[39],5.28 µM
same,GI50,[40],3.18 µM
same,TGI,[40],12.3 µM
same,GI50,[41],2.21 µM
same,TGI,[41],4.92 µM
same,GI50,[42],2.7 µM
same,TGI,[42],7.69 µM
same,GI50,[43],2.44 µM
same,TGI,[43],7.79 µM
same,GI50,[44],3.26 µM
same,TGI,[44],12 µM
same,GI50,[45],1.83 µM
same,TGI,[45],3.42 µM
same,GI50,[46],5.57 µM
same,TGI,[46],19.2 µM
same,GI50,[47],3.09 µM
same,TGI,[47],10.9 µM
same,GI50,[48],3.32 µM
same,TGI,[48],12.4 µM
same,GI50,[49],1.8 µM
same,TGI,[49],4.17 µM
same,GI50,[50],3.74 µM
same,TGI,[50],> 100 µM
same,GI50,[51],2.03 µM
same,TGI,[51],4.39 µM
same,GI50,[52],7.32 µM
same,TGI,[52],38 µM
same,GI50,[53],3.72 µM
same,TGI,[53],18.2 µM
same,GI50,[54],2.38 µM
same,TGI,[54],5.8 µM
same,GI50,[55],2.17 µM
same,TGI,[55],7.37 µM
same,GI50,[56],2.85 µM
same,TGI,[56],14 µM
same,GI50,[57],1.52 µM
same,TGI,[57],8.03 µM
